Consider 88 compounds from a melting point compilation (Tetko et al.; mined from patent text by program, amines drawn as free bases though some values may be those of a salt).

For the compound `O=S(=O)(O)c1cc(O)ccc1O`, the melting point lay within 164 to 167 °C.
The result for `C[C@]12CCC(=O)N[C@@H]1CCc1cc(SCc3ccccc3)ccc12` reads 172 to 174 °C; that for `CCOC(=O)C1=C(CO)NC(CO)=C(C(=O)OCC)C1c1ccccc1Cl`, 190 to 191 °C; that for `CN(C)C(=O)N1CCSC1c1ccccc1OCCN1CCN(c2cccc(F)c2)CC1` (stereo not drawn), 90.5 to 93 °C.
As to `CCn1c(-c2ccc(OC)c(OC)c2)cc(=Nc2c(C)cc(C)cc2C)n(C)c1=O`, the melting point lay in the range of 57 to 61 °C.
Next, `CC1(C)C2CC3CCC(=O)OC3C1C2` (stereo not drawn): 57 to 60 °C; `O=[N+]([O-])c1cnn2c1-c1ccccc1NC2C=Cc1ccccc1` (stereo not drawn): 171 to 173 °C; `CCOc1cc2c(C)c(CCN3CCC(c4ccccc4)CC3)c(=O)oc2cc1OC`: 195 to 196 °C.
The result for `CCCCc1oc2ccccc2c1C(=O)c1cc(Cl)c(O)c(Cl)c1` reads 110 to 114 °C; that for `c1ccc(CCN2Cc3sccc3C(c3ccccc3)C2)cc1` (stereo not drawn), 110 °C.
Consider `CCN(CC)C(=O)Cc1c(-c2ccc(OC)cc2)nn2c(C)cc(C)nc12`, for which the melting point is 120 to 124 °C.
In turn, `c1ccc(CN2CCC3(CC2)OCc2ccccc23)cc1` showed a melting point of 67 to 68.5 °C.
Next, `Cc1c(Br)cc2c(c1C)OC(=O)C2(C)c1ccc(C(C)C)cc1` (stereo not drawn): 116 to 117 °C; `COC(=O)c1cccc2c(C(F)(F)F)c(OC)ccc12`: 79 to 80 °C; `COC(=O)CCCc1cc2nc(Cl)ccc2n1S(=O)(=O)c1ccc(C)cc1Cl`: 88 to 89 °C.
The result for `NC(=O)c1ccc(-c2ccc(-c3ccn(C(CC(=O)OCc4ccccc4)C(=O)NC(CO)Cc4ccccc4)c3)cc2)cc1` (stereo not drawn) reads 192 to 194 °C; that for `COC(=O)c1ccc(OC)c2c1OCO2`, 122 to 124 °C; that for `CCCCNc1ncn(-c2c(CC)cccc2CC)c(=O)n1`, 178 to 179 °C.
Next, `O=C(O)c1cc(F)c(O)nc1Nc1ccc(F)cc1`: 216 to 217 °C.
With `COc1cc(NC(=O)CCN2CCCN(CCC(=O)Nc3cc(OC)c(OC)c(OC)c3)CC2)cc(OC)c1OC`, the melting point was 135 to 137 °C.
The result for `CCOC(=O)CCc1cc(O)nn1Cc1ccccc1` reads 128 to 129 °C.
Next, `CC(C)c1cccc(C(C)C)c1NC(=O)NCC1(Nc2ccc(-c3ccccc3)cc2)CCCC1`: 198 °C.
Next, `COc1ccc(-c2nc3ccc(C(C)(C)CNC=O)cc3[nH]2)cn1`: 217 to 221 °C; `NS(=O)(=O)c1ccc(-c2cc(F)c(F)cc2-c2ccc(F)cc2)cc1`: 190 to 192 °C.
Take `Cc1ccccc1OCc1ccccc1N`: the melting point was found to be 56 °C.
In turn, `CCCOc1ccc(S(=O)(=O)NC)cc1C1=NC(=O)C2=NC=NC2=N1` displayed a melting point of 245 to 246 °C.
Next, `O=C1NC2CCC1C(O)C2` (stereo not drawn): 115 to 120 °C; `CC(C#N)c1ccc(O)cc1` (stereo not drawn): 41 to 46 °C.
The result for `FCc1cccc(C#CCCn2nc3cc(F)c(F)cc3n2)n1` reads 104 to 105 °C; that for `CCCc1c(OCCCOc2ccccc2)ccc2c1OC(CCC(=O)O)(CCC(=O)O)CC2`, 130 to 132 °C; that for `CC(C)OC(=O)c1ncn2c1cnc1ccccc12`, 205 to 206 °C.
Take `CCOC(=O)CCCCn1c(=O)[nH]c2ccc(F)cc2c1=O`: the melting point is 131 to 132 °C.
The result for `Cc1cc(N2CN=C(C(F)(F)F)O2)cc(C)c1OCCCc1ccc(C(C)(F)F)nn1` reads 54.5 °C.
`Cc1ccc(C)n1CC(=O)N=C(N)N` came in with a melting point of 198 to 200 °C.
`Cc1ccc2c(c1)c1cc(-c3cccc(Br)c3)c(=O)n(C)c1n2C`: the melting point is 215 to 216 °C.
Next, `c1ccc(CCN2CCN(c3n[nH]c4ccccc34)CC2)cc1`: 118 to 120 °C; `Cc1c(CC(=O)O)c2cc3c(cc2n1C(=O)c1ccc(Cl)cc1)OCO3`: 190 to 191 °C.
For `O=C1C(=O)c2ccccc2C2=C1SCC1(CCN(CC(O)c3ccccc3)CC1)O2` (stereo not drawn), the melting point lay within 193 to 195 °C.
The result for `O=C(O)C(O)=CC(=O)c1c(Cc2ccccc2)[nH]c2ccccc12` reads 165 to 167 °C; that for `COc1c(N2CC[C@H]([C@@H](C)NC(=O)OC(C)(C)C)C2)c(F)cc2c(=O)n(N)c(=O)n(C3CC3)c12`, 96 to 98 °C.
Next, `c1ccc(OCCN2CCN(Cc3c[nH]c4ncccc34)CC2)cc1`: 143 °C; `N#Cc1cccc(C(=O)Nc2c(Cl)cncc2Cl)c1`: 242 to 244 °C.
On to `O=C(CCC(F)(F)Cl)Nc1ccccn1`, for which the melting point lay within 64 to 65 °C.
Next, `O=C(NCc1ccc(Cl)cc1)c1cnc2ccc(-c3ccccc3)cc2c1O`: 255 to 257 °C.
Next, `N#CSCSc1nc(Cl)c(Cl)nc1Cl`: 90 to 93 °C; `CC(C)(C)C(=O)Nc1nn(C(=O)C(C)(C)C)c(N)c1C#N`: 181 to 184 °C.
The result for `O=C(NCCN1CCN(c2cc(C(F)(F)F)ccn2)CC1)c1ccc(F)cc1` reads 159 °C; that for `CS(=O)(=O)Nc1ccc(C(O)CN2CCCCCC2)cc1` (stereo not drawn), 120 to 122 °C.
Take `CC1=C(C(=O)OCCN(C)c2ccccc2)C(c2ccccc2C(F)(F)F)c2c(ccnc2OC(C)C)N1` (stereo not drawn): the melting point fell in the range of 114 to 116 °C.
Next, `COc1ccc(-c2csc(NN=Cc3cn(Cc4ccc(Cl)cc4Cl)c4ccccc34)n2)cc1OC`: 205 °C.
Next, `COc1ccccc1C(Cc1ccccc1)(Cn1cncn1)C(=O)O` (stereo not drawn): 250 to 252 °C; `COc1cccc(CC(=O)O)c1OCCCc1cc(OC(C)C)nn1Cc1ccc2ccccc2n1`: 129 to 130 °C.
Next, `COc1ccc(-c2csc(Nc3ccncc3)n2)cc1OC`: 205 to 207 °C; `CCn1cc(C(=O)O)c(=O)c2cc(F)c(N3CCN(C)C(c4cccs4)C3)cc21` (stereo not drawn): 238 to 240 °C; `COc1cc(C(=O)CCCN2CCC(OC(=O)c3cc(Cl)c(N)c4c3OCC4)C(OC)C2)cc(OC)c1OC` (stereo not drawn): 132 °C.
Regarding `O=C(CCl)c1ccc(Oc2ccc(C(=O)CCl)cc2)cc1`, the melting point lay within 129 to 130 °C.
The result for `O=C1CCCn2c(=O)n(Cc3ccccc3)c3cccc1c32` reads 135 °C; that for `CC(OC(=O)C1(C(=O)O)Oc2ccc(C[C@@H](C)NC[C@H](O)c3cccc(Cl)c3)cc2O1)c1ccccc1` (stereo partly drawn), 71 to 79 °C.
The result for `CCOC(=O)c1ccc2oc(CC)nc2c1` reads 35 to 37 °C; that for `C=C1N(CCCCCCC)C(=O)OC12CCN(Cc1ccccc1)CC2`, 47 to 48 °C; that for `COC(=O)C1(n2c(=O)c3ccccc3n(CCCCBr)c2=O)CCCC1`, 96 to 98 °C.
Next, `O=S(=O)(NCCCCOc1ccc(-n2ccnc2)cc1)c1ccc2ccccc2c1`: 157 to 158 °C; `CNc1nc(C(=O)c2ccc([N+](=O)[O-])c(OC)c2)n2ccccc12`: 208 °C.
Consider `Cn1cncc1-c1cccc(Nc2ccc3ccccc3n2)c1`, for which the melting point lay in the range of 60 to 65 °C.
The result for `CNc1c(C)c(C)c(OC(C)=O)c(C)c1[N+](=O)[O-]` reads 143 to 146 °C; that for `O=C(Cc1ccc(F)cc1)c1c(O)c2cccnc2n(-c2ccccc2)c1=O`, 185 to 187 °C; that for `Nc1ccccc1SCc1ncon1`, 57 °C.
The result for `Cc1ccc(S(=O)(=O)N2[C@@H](CC#N)CC[C@H]2c2ccc(F)cc2)cc1` (racemic) reads 116 °C; that for `Nc1c([N+](=O)[O-])cnc2sccc12`, 227 to 228 °C.
Next, `CCCN(c1ccccc1)c1nc(=O)c2cccnc2s1`: 141 to 142 °C.
With `CCC1(C2CCCC2)Cc2cc(OCCCC(=O)O)c(Cl)c(Cl)c2C1=O` (stereo not drawn), the melting point was 189 to 193 °C.
`C=CCOc1cc(OC(=S)N2CCCC2)ccc1Cl` yielded a melting point of 87.3 to 91.1 °C.
Consider `Cc1nc2c(OCc3cccs3)cccn2c1CC#N`, for which the melting point lay in the range of 155 to 157 °C.
The result for `COC(=O)CCNC(=O)c1cc(Cl)c([N+](=O)[O-])cc1[N+](=O)[O-]` reads 139 to 141 °C; that for `CC(=O)OC(c1ccccc1)C1CNC1=O` (stereo not drawn), 96 to 97 °C; that for `CCC(CC)c1ccc(Cl)c2nc3n(c12)CCCCN3c1ccc(C(F)(F)F)cc1Br`, 158 to 160 °C.
The result for `CCn1c(C2CCCO2)nc2c(N)nc(OCCc3ccccc3)nc21` (stereo not drawn) reads 121 to 123 °C.
The result for `Cc1ccc(C=COc2cccc3c2C(=O)c2ccccc2C3=O)cc1` reads 88 to 90 °C; that for `CC(C)Cn1c(=O)n(C)c(=O)c2c(Sc3ccc(N)cn3)c(Cc3cccc4ccccc34)sc21`, 208 to 209 °C; that for `Fc1ccc(-c2cncc(CNCCOc3cccc4ccccc34)c2)cc1`, 92 to 94 °C.
Compound `CCC1CCC(c2ccc(-c3cc(F)c(C(F)(F)Oc4cc(F)c(C(F)(F)F)c(F)c4)c(F)c3)c(F)c2)OC1` (stereo not drawn) displayed a melting point of 90 °C.
Next, `CS(=O)(=O)c1ccc(C(CC2CCCC2)C(=O)Nc2nccs2)cc1[N+](=O)[O-]` (stereo not drawn): 121 to 124 °C; `COC(=O)c1ccccc1NC(=O)N1CCc2cc(S(=O)(=O)N3CCN(c4cccc(Cl)c4)CC3)ccc21`: 230 °C; `CC(C)(C(=O)Nc1cc(Cl)cc(Cl)c1)N1COC(C#N)=C(c2ccccc2)C1=O`: 132 to 135 °C.
Consider `COC(=O)c1cc2ncnn2nc1NCCCN1CCC(OC(c2ccccc2)c2ccccc2)CC1`, for which the melting point was 120 to 122 °C.
The result for `CCN(CCCc1c[nH]c2ccc(Cl)cc12)C1COc2c(F)ccc(C(N)=O)c2C1` (stereo not drawn) reads 149 to 156 °C.
The compound `COc1cc(N2CCN(C[C@H](C)O)CC2)c(F)cc1Nc1ncc2ccc(-c3ccccc3N(C)S(C)(=O)=O)n2n1` returned a melting point of 116 to 120 °C.
The result for `O=C(N[C@H]1CC[C@H](CCN2CCN(c3nccc4c3OCC4)CC2)CC1)c1ccc(F)cc1` reads 236 °C.
